The values below come from patent publication US9499493B2, “2,4-pyrimidinediamine compounds and their uses” (Rigel Pharmaceuticals, Inc., priority 2002, dated 2016).

In experiment [1] the test system is cultured human mast cells (CHMC). As to the kind of experiment: CHMC high cell density IgE activation: LTC4. The note with it: anti-IgE activation. Format: cell-based. The protocol: Inhibition of degranulation was measured at both low and high cell density by quantifying the release of the granule specific factors tryptase, histamine and hexosaminidase. Inhibition of release and/or synthesis of lipid mediators was assessed by measuring the release of leukotriene LTC4 and inhibition of release and/or synthesis of cytokines was monitored by quantifying TNF-α, IL-6 and IL-13. Tryptase and hexosaminidase were quantified using fluorogenic substrates as described in their respective examples. […] The protocols of the various assays are provided below.
After sensitizing, cells are counted, pelleted (1000 rpm, 5-10 minutes), and resuspended at 1-2×10^6 cells/ml in MT buffer. Add 100 ul of cell suspension to each well and 100 ul of compound dilutions. The final vehicle concentration is 0.5% DMSO. Incubate at 37° C. (5% CO2) for 1 hour. After 1 hour of compound treatment, stimulate cells with 6× anti-IgE. Mix wells with the cells and allow plates to incubate at 37° C. (5% CO2) for one hour. After 1 hour incubation, pellet cells (10 minutes, 1000 RPM) and collect 200 ul per well of the supernatant, being careful not to disturb pellet. Place the supernatant plate on ice. During the 7-hour step (see next) perform tryptase assay on supernatant that had been diluted 1:500. Resuspend cell pellet in 240 ul of CM media containing 0.5% DMSO and corresponding concentration of compound. Incubate CHMC cells for 7 hours at 37° C. (5% CO2). After incubation, pellet cells (1000 RPM, 10 minutes) and collect 225 ul per well and place in −80° C. until ready to perform ELISAS. ELISAS are performed on appropriately diluted samples (determined empirically for each donor cell population so that the sample measurement falls within the standard curve) following the supplier's instructions.

For experiment [2] the test system is unchanged. As to the kind of experiment: CHMC low cell density ionomycin activation: tryptase assay. It counts as cell-based.
For experiment [3], the system named is basophil cells. As to the kind of experiment: Basophil IgE activation: histamine release assay. Format: cell-based, human. The note with it: Basophils, anti-IgE. The protocol:
(§1) The basophil activation assay was carried out using whole human peripheral blood from donors allergic to dust mites with the majority of the red blood cells removed by dextran sedimentation. Human peripheral blood was mixed 1:1 with 3% dextran T500 and RBCs were allowed to settle for 20-25 min. The upper fraction was diluted with 3 volumes of D-PBS and cells were spun down for 10 min at 1500 rpm, RT. Supernatant was aspirated and cells were washed in an equal volume MT-buffer. Finally, cells were resuspended in MT-buffer containing 0.5% DMSO in the original blood volume. 80 uL cells were mixed with 20 uL compound in the presence of 0.5% DMSO, in triplicate, in a V-bottom 96-well tissue culture plate. A dose range of 8 compound concentrations was tested resulting in a 10-point dose response curve including maximum (stimulated) and minimum (unstimulated) response. […] The cells were stimulated for 30 minutes at 37° C., 5% CO2. The plate was spun for 10 min at 1500 rpm at room temperature and 80 uL the supernatant was harvested for histamine content analysis using the histamine ELISA kit supplied by Immunotech. The ELISA was performed according to supplier's instructions.

For experiment [4], the system named is basophil cells. As to the kind of experiment: Basophil ionomycin activation: histamine release assay. Format: cell-based, human. The following applies: Basophils. The protocol: as §1
Assays for ionomycin-induced basophil cell degranulation were carried out as described for the Basophil IgE or Dustmite Activation Assay (Section 6.4.6, supra), with the exception that following incubation with compound, cells were stimulated with 20 μl of 2 μM ionomycin.

Experiment [5] in a line: Sheep model of allergic asthma (Ascaris suum challenge). The note with it: aqueous suspension; for LAR and AHR (in words) / AHR (% inhibition) / EAR (% inhibition) / LAR (% inhibition): 45 mg/sheep; for LAR and AHR (in words): 60 minutes prior to allergen challenge; for AHR (% inhibition) / EAR (% inhibition) / LAR (% inhibition): pretreatment 60 min. Format: in vivo. The protocol:
Sheep develop bronchoconstriction within minutes of exposure to inhaled antigen (Ascaris suum), with maximal airflow obstruction during the early allergic response (EAR). Release of preformed mast cell mediators is likely responsible for this early phase of airflow obstruction. […] In the sheep, AHR develops a few hours following antigen challenge, and can persist for up to 2 weeks.
In the sheep model of allergic asthma, sheep are administered aerosols of test article via an endotracheal tube, followed by an aerosol challenge with antigen extracted from the roundworm, Ascaris suum, to which the sheep are naturally allergic. Allergen challenge leads to direct bronchoconstriction (both EAR and LAR) and a persistent non-specific AHR. These three characteristics are similar to those seen in human allergic asthmatics. The activity of the test agent is determined by changes in the lung resistance (RL), which is calculated from measurements of transpulmonary pressure, flow, and respiratory volume. […] The LAR is a less pronounced increase in RL, which starts approximately 5-6 hours following allergen challenge and is resolved by 8 hours post-challenge. Twenty-four hours after the challenge, a dose response to carbachol is measured to determine the AHR, which is expressed as the dose of carbachol required to increase RL by 400% over baseline. (This measurement is referred to as the provocative concentration of carbachol that elicits a 400% increase in RL over baseline (PC400). The data are compared to historical control data for the same individual when administered a saline control aerosol and challenged with Ascaris suum.

The next experiment deals with B-cell line BJAB. As to the kind of experiment: BJAB toxicity, Cell Titer Glo assay. It counts as cell-based. The following applies: 18 hours incubation. The protocol:
Seed 50 μl cells (1×10^6/ml) into each well containing 50 μl compound. The final vehicle concentration is 0.5% DMSO, 1.5% MeOH. Shake plates for 1 minute to mix cells and compound. Incubate plates at 37° C. (5% CO2) for 18 hours. Next day, harvest 50 μl cells from each well, add to 50 μl Cell Titer Glo reagent ([…]). Shake plates for 1 minute. Read on luminometer.
For orientation: In ATP-based viability assays light output follows the ATP content of the culture.

Experiment [6] concerns cultured human mast cells (CHMC). As to the kind of experiment: CHMC high cell density IgE activation: histamine. Format: cell-based. The following applies: anti-IgE activation. Put shortly:
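IgE-sensitized CHMC at 1-2×10^6 cells/ml were pretreated with compound for 1 h at 37 °C (0.5% DMSO final), then anti-IgE-stimulated for 1 h and supernatant collected. Hexosaminidase was read with a fluorogenic substrate. Pellets were re-incubated 7 h with compound before supernatant ELISAs.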

A further experiment relates to Jurkat cells. As to the kind of experiment: Jurkat toxicity, Cell Titer Glo assay. Format: cell-based. The following applies: 18 hours incubation. The protocol: Seed 50 μl cells (1×10^6/ml) into each well containing 50 μl compound. […] Shake plates for 1 minute to mix cells and compound. Incubate plates at 37° C. […] Next day, harvest 50 μl cells from each well, add to 50 μl Cell Titer Glo reagent ([…]). Shake plates for 1 minute. Read on luminometer.

Values joined by “and” are separate entries in the source; they are usually repeats but may differ in a detail not shown here. Equal values may be shown once. A value given as a limit tells only on which side of the number the result lay.

With `CNC(=O)COc1cccc(Nc2ncc(F)c(Nc3ccc4c(c3)NCCO4)n2)c1` [R921219, N4-(1,4-Benzoxazin-6-yl)-5-fluoro-N2-[3-(N-methylamino)carbonylmethyleneoxyphenyl]-2,4-pyrimidinediamine], the concentration for half-maximal inhibition (IC50) in experiment [1] was 34 nM; in experiment [2] it was over 10000 nM; in the experiment on basophil cells [3], 25 nM; with basophil cells [4], over 10000 nM; in the experiment with B-cell line BJAB it was over 10000 nM; in experiment [6], 162 nM. For the same compound, the IC50 with Jurkat cells is over 10000 nM. Further, the “LAR and AHR (in words)” value in experiment [5] is “blocked”. In experiment [5], the “AHR (% inhibition)” value worked out at 90%. The “EAR (% inhibition)” value in experiment [5] was 54% and 56%. The “LAR (% inhibition)” value in experiment [5] is 75%. Moreover, in experiment [5], the “EAR (in words)” value is “greatly reduced”.

Consider `CNC(=O)COc1cccc(Nc2ncc(F)c(Nc3cccc(O)c3)n2)c1` [R926508, 5-Fluoro-N4-(3-hydroxyphenyl)-N2-[3-(N-methylamino)carbonylmethyleneoxyphenyl]-2,4-pyrimidinediamine], for which the IC50 was 505 nM in experiment [1]; over 10000 nM in experiment [2]; 65 nM in the experiment on basophil cells [3]; over 10000 nM in the experiment on basophil cells [4]; over 10000 nM with B-cell line BJAB; 105 nM in experiment [6]. In the experiment with Jurkat cells, this compound showed an IC50 of over 10000 nM. Further, in experiment [5], the “LAR and AHR (in words)” value is reported as “blocked”. In addition, the “AHR (% inhibition)” value in experiment [5] turned out to be 88%. The “EAR (% inhibition)” value in experiment [5] came out at 21%. Further, the “LAR (% inhibition)” value in experiment [5] turned out to be 90%. Further, the “EAR (in words)” value in experiment [5] is reported as “greatly reduced”.

As a reminder, the IC50 is the concentration that inhibits the measured activity by half. Lower therefore signals inhibition by little substance.
